Laboratory results: PMC9468552 (Clinical and Translational Science, 2022)

How the values were obtained:
[1] = target: T1, CYP1A2 (Homo sapiens, UniProt P05177); assay: Study 004: DDI of EDP‐305; type: in vivo; conditions: for Cmax: human, plasma, oral, Geo LSMean
T1 sequence (P05177 1-516): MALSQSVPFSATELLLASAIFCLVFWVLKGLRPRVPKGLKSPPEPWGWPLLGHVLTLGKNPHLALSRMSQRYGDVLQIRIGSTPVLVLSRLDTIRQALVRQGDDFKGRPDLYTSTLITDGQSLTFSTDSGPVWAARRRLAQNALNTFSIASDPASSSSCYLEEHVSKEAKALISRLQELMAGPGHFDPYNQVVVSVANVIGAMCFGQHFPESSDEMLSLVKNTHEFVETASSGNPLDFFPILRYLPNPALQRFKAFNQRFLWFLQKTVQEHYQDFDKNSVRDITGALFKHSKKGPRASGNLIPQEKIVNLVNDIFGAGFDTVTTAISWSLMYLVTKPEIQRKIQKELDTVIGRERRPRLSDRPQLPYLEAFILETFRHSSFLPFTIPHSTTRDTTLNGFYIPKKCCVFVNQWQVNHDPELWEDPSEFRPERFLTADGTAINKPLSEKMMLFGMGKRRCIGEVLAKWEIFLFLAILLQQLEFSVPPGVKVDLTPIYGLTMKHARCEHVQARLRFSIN

[2] = target: T2, CYP3A4 (Homo sapiens, UniProt P08684); assay: Study 008: effect of EDP‐305 on combined oral contraceptive; type: in vivo; conditions: for AUC0,t, Geo LSMean ratio (90% CI) / Cmax, Geo LSMean ratio (90% CI): OC + EDP‐305 vs OC alone; for AUC(0-t) / Cmax: human, plasma, oral, Geo LSMean, day 21; for AUC(0-t): AUC0,t
[3] = target: T2, CYP3A4; assay: Study 004: DDI of EDP‐305; type: in vivo; conditions: for Cmax: human, plasma, oral, Geo LSMean
[4] = test system: OATP1B1/B3 and BCRP; assay: Study 004: DDI of EDP‐305; type: in vivo, human
[5] = caffeine + EDP‐305 vs caffeine alone
[6] = OC + EDP‐305 2.5 mg tablet (test)
[7] = midazolam 2 mg + EDP‐305 10 mg (test)
[8] = midazolam + EDP‐305 vs midazolam alone
[9] = rosuvastatin + EDP‐305 vs rosuvastatin alone

T2 sequence (P08684 whole entry): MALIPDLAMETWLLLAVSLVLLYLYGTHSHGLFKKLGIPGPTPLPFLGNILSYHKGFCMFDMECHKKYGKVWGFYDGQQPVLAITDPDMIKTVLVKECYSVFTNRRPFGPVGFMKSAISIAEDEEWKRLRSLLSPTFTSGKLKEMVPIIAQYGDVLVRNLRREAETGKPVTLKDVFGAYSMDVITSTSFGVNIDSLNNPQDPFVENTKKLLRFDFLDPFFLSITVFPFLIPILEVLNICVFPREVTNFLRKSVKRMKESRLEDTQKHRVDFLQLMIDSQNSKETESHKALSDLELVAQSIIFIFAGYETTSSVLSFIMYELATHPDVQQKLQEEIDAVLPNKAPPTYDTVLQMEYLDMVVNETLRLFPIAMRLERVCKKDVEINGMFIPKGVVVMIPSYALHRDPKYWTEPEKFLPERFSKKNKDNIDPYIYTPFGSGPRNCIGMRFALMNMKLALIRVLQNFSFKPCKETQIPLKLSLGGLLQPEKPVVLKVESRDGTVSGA

Cn1c(=O)c2c(ncn2C)n(C)c1=O [caffeine]
delayed Tmax (increase) [1, 5]: 50% | effect on Vd/F [1, 5]: little effect | increase in AUC0‐t [1, 5]: 1.90 fold | longer t1/2 (increase) [1, 5]: 64% | lower CL/F (decrease) [1, 5]: 45% | Cmax ([1]; 200 mg, caffeine 200 mg alone (reference)): 4190 ng/mL | Cmax ([1]; caffeine 200 mg + EDP‐305 10 mg (test)): 4720 ng/mL

C#C[C@]1(O)CC[C@H]2[C@@H]3CCc4cc(O)ccc4[C@H]3CC[C@@]21C [ethinyl estradiol]
AUC0,t, Geo LSMean ratio (90% CI) [2]: 1.08 (1.00, 1.16) | Cmax, Geo LSMean ratio (90% CI) [2]: 1.08 (0.99, 1.19) | AUC(0-t) ([2]; OC alone (reference)): 1.25 ng·h/mL | Cmax [2, 6]: 0.148 ng/mL | Cmax ([2]; OC alone (reference)): 0.137 ng/mL | Peak and systemic exposures (Cmax and AUC0‐τ), OC + EDP‐305 vs OC alone ([2]; in words): similar

C#C[C@]1(O)CC[C@H]2[C@@H]3CCC4=CC(=O)CC[C@@H]4[C@H]3CC[C@@]21CC [levonorgestrel]
AUC0,t, Geo LSMean ratio (90% CI) [2]: 1.31 (1.23, 1.39) | Cmax, Geo LSMean ratio (90% CI) [2]: 1.29 (1.21, 1.38) | AUC(0-t) ([2]; OC alone (reference)): 57.2 ng·h/mL | Cmax [2, 6]: 3.85 ng/mL | Cmax ([2]; OC alone (reference)): 2.99 ng/mL

Cc1ncc2n1-c1ccc(Cl)cc1C(c1ccccc1F)=NC2 [midazolam]
Cmax ([3]; 2 mg, midazolam 2 mg alone (reference)): 7.51 ng/mL | Cmax [3, 7]: 9.41 ng/mL | AUC0,inf, Geo LSMean [3, 7]: 32.22 ng·h/mL | delayed Tmax (increase) [3, 8]: 98% | increase in AUC0‐t [3, 8]: 1.53 fold | longer t1/2 (increase) [3, 8]: 34% | lower CL/F (decrease) [3, 8]: 36% | lower Vd/F (decrease) [3, 8]: 14%

CC(C)c1nc(N(C)S(C)(=O)=O)nc(-c2ccc(F)cc2)c1/C=C/[C@@H](O)C[C@@H](O)CC(=O)O [rosuvastatin]
Cmax ([4]; human, plasma, oral, Cmax, Geo LSMean, rosuvastatin 20 mg + EDP‐305 10 mg (test)): 5.59 ng/mL | effect on Tmax [4, 9]: no apparent effect | increase in AUC0‐t [4, 9]: 1.24 fold | longer t1/2 (increase) [4, 9]: 17% | lower CL/F (decrease) [4, 9]: 20%
